PubChem BioAssay AID624167 (Sanford-Burnham Center for Chemical Genomics, 2012)
The source made the active and inactive calls.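 Rule for the calls: active = mean IC50 for reducing PEG3 promoter reporter signal at or below a set limit, with IC50 above the limit in both counter screens; inactive = the rest, including counter screen hits.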

Columns and labels:
PEG-3 [1] = target: PEG-3 (UniProt Q6IN02); assay: Peg3 promoter luciferase inhibitors, potency, dose response, cell-based, HeLa, CREF/GAPDH counter-screen panel (AID 624167); conditions: HeLa PEG-Prom luciferase reporter, overnight, CREF/GAPDH counter-screens, mean of runs
Sequence of PEG-3 (UniProt Q6IN02) (Q6IN02 whole entry, looked up): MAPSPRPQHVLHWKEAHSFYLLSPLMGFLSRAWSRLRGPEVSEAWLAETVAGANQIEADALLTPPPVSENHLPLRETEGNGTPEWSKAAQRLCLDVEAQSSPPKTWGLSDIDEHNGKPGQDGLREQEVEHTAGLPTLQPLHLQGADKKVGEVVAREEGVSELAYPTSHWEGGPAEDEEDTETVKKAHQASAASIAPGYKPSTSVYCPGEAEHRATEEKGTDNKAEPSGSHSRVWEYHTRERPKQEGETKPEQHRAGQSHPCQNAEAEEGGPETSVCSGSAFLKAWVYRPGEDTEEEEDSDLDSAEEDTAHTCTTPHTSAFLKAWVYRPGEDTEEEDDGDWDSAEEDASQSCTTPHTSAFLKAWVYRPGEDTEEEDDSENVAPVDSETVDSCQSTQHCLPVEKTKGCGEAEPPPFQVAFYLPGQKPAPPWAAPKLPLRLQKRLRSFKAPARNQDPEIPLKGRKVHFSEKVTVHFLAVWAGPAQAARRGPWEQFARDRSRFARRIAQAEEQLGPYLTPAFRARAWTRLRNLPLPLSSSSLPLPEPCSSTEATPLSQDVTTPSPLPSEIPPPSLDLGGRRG

PEG-3 [2] = assay: as above; conditions: HeLa PEG-Prom luciferase reporter, overnight, CREF/GAPDH counter-screens
[3] = run 1, dose range 1, individual replicate IC50 per panel
[4] = run 2, dose range 1, individual replicate IC50 per panel

SMILES	IC50 (PEG-3 [1])	IC50 (PEG-3 [2]; [3]) [µM]	IC50 (PEG-3 [2]; [4]) [µM]
O=C1NC(=S)N(c2ccccc2F)C(=O)/C1=C\c1cccs1	16.7 µM	19.1	14.2
O=C1/C(=C/c2ccccc2Cl)SC(=S)N1CCCC(=O)N(CCO)c1ccccc1	17.8 µM	18.9	16.7
COc1ccccc1N1CCN(C(=O)c2sc3ncnc(N4CCN(c5ccccn5)CC4)c3c2C)CC1	inactive	27.6	19.7
COc1ccc(CC(=O)N(Cc2ccccc2)c2ccccc2)cc1S(=O)(=O)N1CCOCC1	inactive	50.5	> 100
COc1cccc(C(=O)O/N=C(\N)c2ccccn2)c1	11.1 µM	15.2	7.08
O=S(=O)(CC(CN1CCCCC1)N1CCCCC1)c1ccccc1 (stereo unspecified)	inactive	38.2	18.2
COc1ccc2sc(-c3ccc(S(C)(=O)=O)cc3)c(C#Cc3cncn3C)c2c1	inactive	21.2	> 100
COc1cc(/C=C/c2ccc3cccc(O)c3n2)c(Br)cc1O	inactive	63.2	42.7
COc1ccc(-c2sc3ccccc3c2-c2ccc(OCCN3CCCCC3)cc2)cc1	inactive	20.9	20.2
COC(=O)c1cc(=O)n(Cc2ccco2)c(=Nc2ccc(F)cc2)s1	17.8 µM	17.6	17.9
O=C(CCl)N1N=C(c2ccco2)CC1c1cccs1 (stereo unspecified)	inactive	24.2	30.4
C[C@@H]1O[C@@H](O[C@@H]2C=C3CCC4C(CC[C@]5(C)[C@@H](c6ccc(=O)oc6)CC[C@]45O)[C@@]3(C)CC2)[C@H](O)[C@H](O)[C@H]1O (stereo partly specified)	0.45 µM	0.709	< 0.2
Cc1ccc(C)c(NP(=O)(Oc2ccccc2)Oc2ccccc2)c1	inactive	28.7	19.1
O=C(Sc1cccc2cccnc12)c1ccccc1Br	13.4 µM	14	12.9
COc1ccc(C2c3ccc4ccccc4c3Oc3ncn(CCO)c(=N)c32)cc1OC (stereo unspecified)	14.7 µM	15.6	13.7
O=c1c2ccccc2oc2cc(C#CC3(O)CCCCC3)ccc12	inactive	27.8	> 100
COC(=O)c1cn(NC(=O)c2cc([N+](=O)[O-])ccc2F)c(=O)c2ccccc12	inactive	26.1	46.5
COc1cc(/C=C/C(=O)N2CCC=CC2=O)cc(OC)c1OC	14 µM	15.9	12.1
CC(NS(=O)(=O)OCC(Cl)(Cl)Cl)c1ccc(C(C)(C)C)cc1 (stereo unspecified)	inactive	38.1	> 100
CC1(C)C(=O)C=CC(=O)C(C)(C)C(=O)C=CC(=O)C(C)(C)C2=CC=C(O2)C(C)(C)C(=O)C=CC1=O	14.2 µM	16.6	11.8
CS(=O)(=O)c1ccc(C(=O)NCCN2C(=O)S/C(=C\c3cccnc3)C2=O)cc1[N+](=O)[O-]	15 µM	17.3	12.7
O=C(Nc1ccc2oc(-c3ccncc3)nc2c1)c1ccc([N+](=O)[O-])o1	11.2 µM	15.9	6.56
CC(=O)c1cccc(-c2csc3ncnc(Sc4nnnn4C)c23)c1	15.7 µM	16	15.3
Cc1nc(N2CCN(S(=O)(=O)c3ccccc3C#N)CC2)c2c(-c3ccccc3)csc2n1	> 100 µM (inactive)	> 100	> 100
CN1Cc2c(N3CCOCC3)nc3sc(C(=O)c4ccc(Br)cc4)c(N)c3c2CC1(C)C	15.2 µM	18.8	11.6
CC(=O)Nc1ccc(Nc2nc(C)c([N+](=O)[O-])c(Nc3ccccc3)n2)cc1	inactive	22.6	> 100
O=C1NC(=O)N(Cc2ccc(F)cc2)C(=O)/C1=C\C=C\c1ccco1	14.9 µM	16.8	13
